Consider 16 compounds from US11458102B2, “Acetaminophen preparation, and method for producing same” (NIPPON ZOKI PHARMACEUTICAL CO., LTD., priority 2017, dated 2022).

The data set can be described thus: Particle size distribution of acetaminophen drug substance by laser-diffraction method (dry measurement). In kind it is physicochemical. The text has this:
The acetaminophen to be used in the present invention (also referred to as “the present acetaminophen”) has a particle size distribution in which d10 is generally 5 to 200 μm, preferably 10 to 150 μm, more preferably 12 to 100 μm, and d90 is generally 200 to 1800 μm, preferably 250 to 1600 μm, more preferably 280 to 1450 μm. Although there are some differences in the particle size distribution among lots, the unpulverized acetaminophen generally has the above-specified particle size distribution. In contrast, although there are some differences in the particle size distribution of a pulverized product of acetaminophen among the manufacturers of the drug substance and production lots, a pulverized product of acetaminophen generally has a particle size distribution in which the d10 is 3 to 10 μm and d90 is 100 to 250 μm, and therefore the particle diameters of the pulverized product of acetaminophen are smaller compared with those of the present acetaminophen. In the present invention, the particle size distribution is determined by a volume distribution evaluation employing a laser-diffraction method (Measuring Instrument: e.g., Mastersizer 2000 or Mastersizer 3000 (Malvern), Dispersion compression air pressure: 2 to 4 Bar), and the terms “d10”, “d50”, and “d90” refer to particle diameters at a volume cumulative 10% point, a volume cumulative 50% point, and a volume cumulative 90% point, respectively, as observed from the smaller diameter side in the particle size distribution. “a laser-diffraction method” is also referred to as “a laser-diffraction scattering method” Each of unpulverized products of acetaminophen (lots A to P) and pulverized products of acetaminophen (lots a to b) was subjected to a particle size distribution measurement using a particle measurement method (dry measurement) by a laser-diffraction method. As an instrument, a dry automated dispersion unit microtray (Mastersizer 2000 or Mastersizer 3000, Malvern) was used, the dispersion compression air pressure was 2 Bar or 4 Bar, and the analysis of particle size distribution was performed by a volume conversion method. […] The range of the particle size distribution in the present invention is determined with taking the above-mentioned finding into consideration. The lots of the acetaminophen drug substances shown in Table 1 are different from each other with respect to the conditions for manufacturing thereof, such as temperature and humidity. […] For example, the results of (1) to (2) of lot E and (1) to (12) of lot H in Table 1 are the results for different measurement samples of the same lots. As apparent from the results, the measurement results may vary depending on the zones of sampling even when the samples are of the same lot or depending on the types of measurement instrument to be used even when the measurement is carried out by the same method.

[1] abbreviates: Mastersizer 2000, laser diffraction, volume distribution, dry, listed as H.
[2] abbreviates: Mastersizer 2000, laser diffraction, volume distribution, dry, listed as B.
[3] abbreviates: Mastersizer 2000, laser diffraction, volume distribution, dry, listed as b.
The mark [4] stands for this setting: Mastersizer 2000, laser diffraction, volume distribution, dry, listed as C.
The mark [5] stands for this setting: measurement instrument printed as dash, listed as c.
[6] abbreviates: Mastersizer 2000, laser diffraction, volume distribution, dry, listed as O.
Setting [7] is: Mastersizer 2000, laser diffraction, volume distribution, dry, listed as P.
Where [8] appears, read: Mastersizer 2000, laser diffraction, volume distribution, dry, listed as K.
Setting [9] is: Mastersizer 2000, laser diffraction, volume distribution, dry, listed as I.
Setting [10] is: Mastersizer 2000, laser diffraction, volume distribution, dry, listed as L.
Setting [11] is: Mastersizer 2000, laser diffraction, volume distribution, dry, listed as M.
Where [12] appears, read: Mastersizer 2000, laser diffraction, volume distribution, dry, listed as D.
Setting [13] is: measurement instrument printed as dash, listed as d.
Setting [14] is: Mastersizer 2000, laser diffraction, volume distribution, dry, listed as N.
[15] abbreviates: Mastersizer 2000, laser diffraction, volume distribution, dry, listed as E.
Where [16] appears, read: Mastersizer 3000, laser diffraction, volume distribution, dry.
Setting [17] is: Mastersizer 2000, laser diffraction, volume distribution, dry, listed as J.
[18] abbreviates: Mastersizer 2000, laser diffraction, volume distribution, dry, listed as G.
[19] abbreviates: Mastersizer 2000, laser diffraction, volume distribution, dry, listed as A.
Setting [20] is: Mastersizer 2000, laser diffraction, volume distribution, dry, listed as a.
[21] abbreviates: Mastersizer 2000, laser diffraction, volume distribution, dry, listed as F.

Consider `CC(=O)Nc1ccc(O)cc1` [Lot H, acetaminophen], for which, under setting [1], the “Particle Diameters D10” value is 23 μm and the “Particle Diameters D90” value is on record as 429 μm.
Consider `CC(=O)Nc1ccc(O)cc1` [Lot B, acetaminophen], for which, under setting [2], the “Particle Diameters D10” value came out at 30 μm and the “Particle Diameters D90” value stood at 551 μm. Moreover, under setting [3], the “Particle Diameters D10” value is on record as 4 μm and the “Particle Diameters D90” value was 144 μm.
Take `CC(=O)Nc1ccc(O)cc1` [Lot C, acetaminophen]: under setting [4], the “Particle Diameters D10” value is on record as 26 μm and the “Particle Diameters D90” value came to 419 μm. Besides, under setting [5], the “Particle Diameters D10” value came to 6 μm and the “Particle Diameters D90” value was found to be 104 μm.
`CC(=O)Nc1ccc(O)cc1` [Lot O, acetaminophen]: under setting [6], the “Particle Diameters D10” value is listed as 24 μm and the “Particle Diameters D90” value was found to be 387 μm.
`CC(=O)Nc1ccc(O)cc1` [Lot P, acetaminophen]: under setting [7], the “Particle Diameters D10” value turned out to be 20 μm and the “Particle Diameters D90” value worked out at 424 μm.
For `CC(=O)Nc1ccc(O)cc1` [Lot K, acetaminophen], under setting [8], the “Particle Diameters D10” value stood at 22 μm and the “Particle Diameters D90” value was 442 μm.
Take `CC(=O)Nc1ccc(O)cc1` [Lot I, acetaminophen]: under setting [9], the “Particle Diameters D10” value was found to be 22 μm and the “Particle Diameters D90” value is on record as 433 μm.
As to `CC(=O)Nc1ccc(O)cc1` [Lot L, acetaminophen], under setting [10], the “Particle Diameters D10” value is 30 μm and the “Particle Diameters D90” value is reported as 486 μm.
Take `CC(=O)Nc1ccc(O)cc1` [Lot M, acetaminophen]: under setting [11], the “Particle Diameters D10” value is 27 μm and the “Particle Diameters D90” value is reported as 419 μm.
Regarding `CC(=O)Nc1ccc(O)cc1` [Lot D, acetaminophen], the “Particle Diameters D10” value is, setting by setting: under setting [12], 20 μm; under setting [13], 10 μm. Moreover, the “Particle Diameters D90” value is, setting by setting: under setting [12], 464 μm; under setting [13], 192 μm.
For `CC(=O)Nc1ccc(O)cc1` [Lot N, acetaminophen], under setting [14], the “Particle Diameters D10” value amounted to 26 μm and the “Particle Diameters D90” value is 439 μm.
Regarding `CC(=O)Nc1ccc(O)cc1` [Lot E, acetaminophen], under setting [15], the “Particle Diameters D10” value was determined as 16 μm and the “Particle Diameters D90” value was 361 μm. Besides, under setting [16], the “Particle Diameters D10” value was 66 μm and the “Particle Diameters D90” value is listed as 1290 μm.
For `CC(=O)Nc1ccc(O)cc1` [Lot J, acetaminophen], under setting [17], the “Particle Diameters D10” value turned out to be 27 μm and the “Particle Diameters D90” value is given as 404 μm.
Turning to `CC(=O)Nc1ccc(O)cc1` [Lot G, acetaminophen], under setting [18], the “Particle Diameters D10” value is on record as 24 μm and the “Particle Diameters D90” value stood at 432 μm.
Regarding `CC(=O)Nc1ccc(O)cc1` [Lot A, acetaminophen], under setting [19], the “Particle Diameters D10” value worked out at 20 μm and the “Particle Diameters D90” value stood at 320 μm. In addition, under setting [20], the “Particle Diameters D10” value turned out to be 4 μm and the “Particle Diameters D90” value is reported as 166 μm.
Consider `CC(=O)Nc1ccc(O)cc1` [Lot F, acetaminophen], for which, under setting [21], the “Particle Diameters D10” value stood at 31 μm and the “Particle Diameters D90” value was 488 μm.
